Test results taken from ChEMBL document CHEMBL2163330, “Dynamic modeling of human 5-lipoxygenase-inhibitor interactions helps to discover novel inhibitors” (J Med Chem, 2012).

Columns and labels:
[1] = molecular target: T1, Leukotriene A-4 hydrolase (Homo sapiens) (UniProt P09960); test: Inhibition of epoxide hydrolase activity of human recombinant leukotriene A4 hydrolase expressed in Escherichia coli assessed as LTB4 production at 100 uM by RP-HPLC
T1 sequence (whole entry): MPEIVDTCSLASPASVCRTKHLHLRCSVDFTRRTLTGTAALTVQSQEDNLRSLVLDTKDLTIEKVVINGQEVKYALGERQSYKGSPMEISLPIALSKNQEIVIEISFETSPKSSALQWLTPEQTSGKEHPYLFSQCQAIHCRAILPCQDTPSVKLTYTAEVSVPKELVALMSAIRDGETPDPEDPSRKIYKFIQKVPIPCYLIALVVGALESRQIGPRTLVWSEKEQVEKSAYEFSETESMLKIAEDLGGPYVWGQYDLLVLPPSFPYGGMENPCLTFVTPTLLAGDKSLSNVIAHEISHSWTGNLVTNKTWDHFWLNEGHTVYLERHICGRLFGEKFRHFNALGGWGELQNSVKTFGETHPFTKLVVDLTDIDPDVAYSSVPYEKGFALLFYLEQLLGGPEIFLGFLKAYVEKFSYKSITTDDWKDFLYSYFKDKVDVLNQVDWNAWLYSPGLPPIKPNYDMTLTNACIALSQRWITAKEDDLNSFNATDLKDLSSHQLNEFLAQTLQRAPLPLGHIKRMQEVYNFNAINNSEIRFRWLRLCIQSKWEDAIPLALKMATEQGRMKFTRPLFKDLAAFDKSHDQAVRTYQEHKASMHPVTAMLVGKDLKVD

[2] = molecular target: T2, Polyunsaturated fatty acid 5-lipoxygenase (Homo sapiens, UniProt P09917); test: Inhibition of human 5-LOX in A23187-induced human whole blood assessed as reduction in LTB4 production pre-incubated for 20 mins before A23187 addition by enzyme immunoassay
T2 sequence (P09917 whole entry): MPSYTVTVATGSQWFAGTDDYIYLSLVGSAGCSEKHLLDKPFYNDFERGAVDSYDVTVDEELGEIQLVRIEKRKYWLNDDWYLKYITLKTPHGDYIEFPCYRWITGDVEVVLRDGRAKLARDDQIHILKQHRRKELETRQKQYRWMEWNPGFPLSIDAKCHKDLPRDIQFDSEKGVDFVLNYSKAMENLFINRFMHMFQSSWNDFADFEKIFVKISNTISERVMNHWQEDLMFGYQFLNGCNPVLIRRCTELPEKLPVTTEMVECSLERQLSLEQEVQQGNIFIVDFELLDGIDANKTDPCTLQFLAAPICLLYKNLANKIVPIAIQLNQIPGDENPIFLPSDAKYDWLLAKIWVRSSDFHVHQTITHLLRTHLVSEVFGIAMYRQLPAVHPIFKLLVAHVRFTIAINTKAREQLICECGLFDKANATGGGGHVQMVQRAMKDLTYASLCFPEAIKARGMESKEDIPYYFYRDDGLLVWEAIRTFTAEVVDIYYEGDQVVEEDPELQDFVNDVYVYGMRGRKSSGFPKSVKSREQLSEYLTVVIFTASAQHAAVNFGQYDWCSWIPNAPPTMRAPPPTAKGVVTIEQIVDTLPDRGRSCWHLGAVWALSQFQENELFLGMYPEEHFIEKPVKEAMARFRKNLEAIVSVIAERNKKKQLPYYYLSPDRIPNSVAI

[3] = molecular target: T2, Polyunsaturated fatty acid 5-lipoxygenase; test: Inhibition of human recombinant 5-LOX expressed in Escherichia coli […] incubated 10 mins before substrate addition by fluorescence spectrophotometry based cell free system assay
Prostaglandin E synthase [4] = molecular target: T3, Prostaglandin E synthase (Homo sapiens, UniProt O14684); test: Inhibition of mPGES1 in LPS-stimulated human whole blood assessed as reduction in PGE2 production incubated for 24 hrs at 37 degC by enzyme immunoassay
T3 sequence (O14684 whole entry): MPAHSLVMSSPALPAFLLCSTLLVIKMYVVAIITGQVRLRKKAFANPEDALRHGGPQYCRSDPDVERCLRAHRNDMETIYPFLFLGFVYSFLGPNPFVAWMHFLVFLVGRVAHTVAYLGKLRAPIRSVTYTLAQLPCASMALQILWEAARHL

Prostaglandin E synthase [5] = molecular target: T3, Prostaglandin E synthase; test: Inhibition of mPGES1 expressed in Escherichia coli Rosetta-DE3 assessed as reduction in PGE2 production by enzyme immunoassay based cell-free system assay
[6] = molecular target: T4, Polyunsaturated fatty acid 5-lipoxygenase (Rattus norvegicus, UniProt P12527); test: Inhibition of 5-LOX in rat RBL1 cells assessed as reduction in LTB4 production; assay type: cell-based, RBL-1
T4 sequence (P12527 whole entry): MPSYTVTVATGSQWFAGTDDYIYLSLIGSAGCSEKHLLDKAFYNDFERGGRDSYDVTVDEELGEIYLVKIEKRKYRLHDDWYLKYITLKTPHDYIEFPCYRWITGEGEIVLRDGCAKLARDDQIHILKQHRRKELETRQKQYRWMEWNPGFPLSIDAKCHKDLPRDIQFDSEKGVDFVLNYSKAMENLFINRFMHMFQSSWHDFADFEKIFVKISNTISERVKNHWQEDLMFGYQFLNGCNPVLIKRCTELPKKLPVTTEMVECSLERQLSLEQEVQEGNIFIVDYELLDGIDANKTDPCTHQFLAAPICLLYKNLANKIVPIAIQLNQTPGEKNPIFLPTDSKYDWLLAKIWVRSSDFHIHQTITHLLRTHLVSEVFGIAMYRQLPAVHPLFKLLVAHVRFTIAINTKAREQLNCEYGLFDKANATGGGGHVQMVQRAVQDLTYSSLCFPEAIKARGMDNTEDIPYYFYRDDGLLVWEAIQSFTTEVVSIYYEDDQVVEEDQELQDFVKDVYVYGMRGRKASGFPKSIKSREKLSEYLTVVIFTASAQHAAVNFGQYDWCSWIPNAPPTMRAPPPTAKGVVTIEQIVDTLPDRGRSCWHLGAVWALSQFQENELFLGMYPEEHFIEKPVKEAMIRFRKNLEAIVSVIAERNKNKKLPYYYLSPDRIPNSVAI

[7] = molecular target: T5, Prostaglandin G/H synthase 2 (Homo sapiens) (UniProt P35354); test: Inhibition of purified COX2 assessed as formation of oxidized TMPD during reduction of PGG2 to PGH2 preincubated for 15 mins by chromogenic assay
T5 sequence (whole entry): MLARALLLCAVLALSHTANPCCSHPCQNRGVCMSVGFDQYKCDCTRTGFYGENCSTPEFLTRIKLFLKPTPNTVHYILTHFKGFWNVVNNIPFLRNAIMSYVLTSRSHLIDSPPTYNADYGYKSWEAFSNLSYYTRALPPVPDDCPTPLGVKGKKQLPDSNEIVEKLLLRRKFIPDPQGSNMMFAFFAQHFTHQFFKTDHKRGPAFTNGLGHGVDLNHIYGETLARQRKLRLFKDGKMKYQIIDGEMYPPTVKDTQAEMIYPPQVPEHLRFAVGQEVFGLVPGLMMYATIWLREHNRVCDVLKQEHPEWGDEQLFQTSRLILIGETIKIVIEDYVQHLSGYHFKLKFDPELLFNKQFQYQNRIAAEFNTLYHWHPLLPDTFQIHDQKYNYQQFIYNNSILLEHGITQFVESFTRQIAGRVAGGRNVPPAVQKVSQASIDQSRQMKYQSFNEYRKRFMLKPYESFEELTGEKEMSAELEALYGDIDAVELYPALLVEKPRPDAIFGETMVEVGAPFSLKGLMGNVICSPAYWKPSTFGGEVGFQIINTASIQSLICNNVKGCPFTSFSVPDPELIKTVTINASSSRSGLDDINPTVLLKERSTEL

[8] = molecular target: Prostaglandin G/H synthase 1 (Homo sapiens) (UniProt P23219); test: Inhibition of purified COX1 assessed as formation of oxidized TMPD during reduction of PGG2 to PGH2 preincubated for 15 mins by chromogenic assay
Prostaglandin G/H synthase 1 (Homo sapiens), sequence (P23219 whole entry): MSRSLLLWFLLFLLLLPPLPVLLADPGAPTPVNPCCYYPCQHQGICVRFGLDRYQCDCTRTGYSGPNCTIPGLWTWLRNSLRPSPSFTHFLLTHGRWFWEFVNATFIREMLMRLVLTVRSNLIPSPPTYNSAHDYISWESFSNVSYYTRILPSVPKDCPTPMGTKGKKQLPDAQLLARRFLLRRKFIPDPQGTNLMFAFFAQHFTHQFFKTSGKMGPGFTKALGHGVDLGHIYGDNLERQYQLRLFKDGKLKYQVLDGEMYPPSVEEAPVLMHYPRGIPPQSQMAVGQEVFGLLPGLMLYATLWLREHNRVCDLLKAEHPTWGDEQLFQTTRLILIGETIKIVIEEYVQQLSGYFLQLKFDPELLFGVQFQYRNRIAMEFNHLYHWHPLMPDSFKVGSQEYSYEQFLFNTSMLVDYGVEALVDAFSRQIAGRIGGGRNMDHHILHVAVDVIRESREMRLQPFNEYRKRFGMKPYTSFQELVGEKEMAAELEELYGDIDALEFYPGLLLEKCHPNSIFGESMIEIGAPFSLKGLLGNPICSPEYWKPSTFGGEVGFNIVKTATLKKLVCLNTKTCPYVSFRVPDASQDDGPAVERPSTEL

Row | Structure (SMILES) | inhibition [1] | IC50 [2] | IC50 [3] | IC50 (Prostaglandin E synthase [4]) | IC50 (Prostaglandin E synthase [5]) | IC50 [6] | inhibition [7] | inhibition [8]
1 | Cc1cccc(C2=N/C(=C\c3ccc(-c4cccc(Cl)c4)o3)C(=O)O2)c1 | < 50% | > 100 µM | 14.2 µM |  |  |  |  | 
2 | O=C(NCCNC(=O)c1ccc([N+](=O)[O-])o1)c1ccc2ccccc2n1 | < 50% | > 100 µM | 82 µM |  |  |  |  | 
3 | O=C(O/N=C/c1ccc(Br)cc1)c1cc([N+](=O)[O-])cc([N+](=O)[O-])c1 | < 50% | 36 µM | 0.62 µM |  |  |  |  | 
4 | O=C1OC(c2ccc3ccccc3c2)=N/C1=C\c1ccc(Cl)cc1 | < 50% | > 100 µM | 80 µM |  |  |  |  | 
5 | Cn1ncc(Cl)c1C(=O)N/N=C/c1ccccc1OC(=O)c1ccc([N+](=O)[O-])cc1 | < 50% | > 100 µM | 5.4 µM |  |  |  |  | 
6 | Cc1cc(Cl)ccc1NC(=O)Cn1nnc2sc3c(c2c1=O)CCCC3 | < 50% | > 100 µM | 44 µM |  |  |  |  | 
7 | CCOc1ccc(S(=O)(=O)N(CC(=O)N2CCc3ccccc3C2)c2ccccc2)cc1 | < 50% | > 100 µM | 29 µM |  |  |  |  | 
8 | Cc1cccc(N=C2NS(=O)(=O)c3cc([N+](=O)[O-])ccc32)c1 |  | 9.7 µM | 1.87 µM | 15.6 µM | 6.7 µM |  |  | 
9 | Cc1nn(Cc2ccc(F)cc2)c(C)c1NC(=O)C1CC(c2cccc(Br)c2)=NO1 (stereo not given) | < 50% | > 100 µM | 65 µM |  |  |  |  | 
10 | O=[N+]([O-])c1ccc(CSc2cc3ccccc3[nH]2)c([N+](=O)[O-])c1 | < 50% | 23.9 µM | 0.8 µM |  |  |  |  | 
11 | Clc1ccc(-c2nn3c(Cc4ccccc4)nnc3s2)cc1Cl | < 50% | > 100 µM | 37.5 µM |  |  |  |  | 
12 | O=C(COC(=O)c1ccc(C(=O)c2ccc([N+](=O)[O-])cc2)cc1)c1ccccc1 | < 50% | 48 µM | 1.49 µM |  |  |  |  | 
13 | CCOc1cc(/C=N\Nc2nc3ccccc3s2)cc([N+](=O)[O-])c1O | < 50% | 40 µM | 0.86 µM |  |  |  |  | 
14 | Cc1ccc(Sc2nc([N+](=O)[O-])nn2CC(=O)c2ccccc2)cc1 | < 50% | 76 µM | 1.4 µM |  |  |  |  | 
15 | COC(=O)c1ccc(NC(=S)NC(=O)c2cc(-c3ccccc3)nc3ccccc23)cc1 | < 50% | > 100 µM | 45 µM |  |  |  |  | 
16 | COc1ccc(/C=C2\N=C(c3ccc(Cl)c([N+](=O)[O-])c3)OC2=O)c(OC)c1OC | < 50% | > 100 µM | 20 µM |  |  |  |  | 

Row | Structure (SMILES) | inhibition [1] | IC50 [2] | IC50 [3] | IC50 (Prostaglandin E synthase [4]) | IC50 (Prostaglandin E synthase [5]) | IC50 [6] | inhibition [7] | inhibition [8]
17 | COc1ccc(-c2nnc3sc(/C=C/c4ccccc4OC)nn23)cc1 | < 50% | > 100 µM | 17 µM |  |  |  |  | 
18 | CC1(C)Cc2c(-c3ccccc3)c(-c3ccc(Cl)cc3)c(CC(=O)O)n2C1 [LICOFELONE] |  |  |  | 3.9 µM |  | 3.6 µM |  | 
19 | O=C1c2ccc([N+](=O)[O-])cc2C(=O)N1CNc1ccc([N+](=O)[O-])cc1 | < 50% | 38 µM | 5.3 µM |  |  |  |  | 
20 | Cc1ccc2cccc(OC(=O)c3cccc([N+](=O)[O-])c3)c2n1 | < 50% | > 100 µM | 4.6 µM |  |  |  |  | 
21 | O=c1/c(=C/c2cc(I)c(O)c([N+](=O)[O-])c2)sc2nc3ccccc3n12 | < 50% | > 100 µM | 33.8 µM |  |  |  |  | 
22 | c1ccc(SCc2nnc3sc(-c4ccc5c(c4)OCCO5)nn23)cc1 | < 50% | > 100 µM | 70 µM |  |  |  |  | 
23 | N#C/C(=C(/O)c1ccc(Cl)c([N+](=O)[O-])c1)c1nc2ccccc2s1 | < 50% | > 100 µM | 53 µM |  |  |  |  | 
24 | O=C(NC1c2ccccc2Oc2ccccc21)c1ccc(Cl)c([N+](=O)[O-])c1 | < 50% | > 100 µM | 67 µM |  |  |  |  | 
25 | COc1cc(Cl)cc(/C=C2/SC(=O)N(Cc3ccc(F)cc3)C2=O)c1O | < 50% | > 100 µM | 68 µM |  |  |  |  | 
26 | c1ccc2c(c1)OCC(c1nn3c(Cn4nnc5ccccc54)nnc3s1)O2 (stereo not given) | < 50% | > 100 µM | 97 µM |  |  |  |  | 
27 | C/C(NCc1ccc(Cl)c(Cl)c1)=C1\C(=O)N(c2nc3ccccc3s2)N=C1C(F)(F)F | < 50% | > 100 µM | 70 µM |  |  |  |  | 
28 | O=C(Oc1cccc2ccccc12)c1cc([N+](=O)[O-])cc([N+](=O)[O-])c1 | < 50% | 8.6 µM | 1.04 µM | 7.6 µM | 3.6 µM |  | < 50% | < 50%
29 | CC(C)(C)OC(=O)NNS(=O)(=O)c1cccc([N+](=O)[O-])c1 | < 50% | > 100 µM | 81 µM |  |  |  |  | 
30 | O=[N+]([O-])c1ccc(Cl)c(S(=O)(=O)n2cnc3ccccc32)c1 | < 50% | 8.1 µM | 6.9 µM |  |  |  |  | 
31 | O=C(CSc1nnnn1-c1ccc(Cl)c(C(=O)O)c1)Nc1ccc(F)cc1 | < 50% | > 100 µM | 15 µM |  |  |  |  | 
32 | Cc1cccc(NC2=NS(=O)(=O)c3cc([N+](=O)[O-])ccc32)c1 | < 50% |  |  |  |  |  | < 50% | < 50%
